Assay results as given in PubChem BioAssay AID2060621 (Molecular Pharmacology Branch, DTP, NCI, 2025).
Values joined by “and” are separate entries in the source; they are usually repeats but may differ in a detail not shown here. Equal values may be shown once.

Tested on: 324938-238-R-J1-PDC complex spheroids viability
Assay: Anticancer human tumor 324938-238-R-J1-PDC patient-derived bladder carcinoma cell line growth inhibition [CLK]
Details: for viability, T/C: stronger effect = lower value
Text: A high-throughput screen of multi-cell type tumor spheroids was designed to identify active combinations of […] and targeted small molecules. Complex spheroids include a stromal component modeled by human endothelial cells (HUVEC) and fibroblasts modeled by human mesenchymal stem cells (MSCs). The concentration ranges selected for each drug and investigational agent were based upon clinically achievable concentrations if the clinical Cmax of the agent was known.
Compounds. The drugs and investigational agents: cirtuvivint (SM08502; NSC835563), CC-671 (NSC850746), vemurafenib (NSC761431), tapotoclax (NSC804041), sotorasib (NSC818433), adagrasib (NSC831453), MRTX-1133 (NSC836407), BAY2416964 (NSC825713), copanlisib (NSC816437), inavolisib (NSC800729), abemaciclib (NSC768073), osimertinib (NSC779217), entinostat (NSC756642), eltanexor (KPT-8602, NSC794443), venetoclax (NSC766270), ceralasertib (NSC777638), bortezomib (NSC756655), olaparib (NSC753686), talazoparib (NSC767125), alisertib (NSC759677), peposertib (NSC802822), gemcitabine (NSC613327), 5-fluorouracil (NSC19893), SN-38 (NSC673596), oxaliplatin (NSC266046), paclitaxel (NSC125973), and doxorubicin (NSC123127), were obtained from the National Cancer Institute (NCI) Developmental Therapeutics Program Chemical Repository. The FDA-approved anticancer drug set is available from the Developmental Therapeutics Program at https://dtp.cancer.gov/organization/dscb/obtaining/available plates.htm. […] The stock solutions were prepared in dimethyl sulfoxide (DMSO, Sigma-Aldrich, St. Louis, MO, cat. D2650), except for the platinum complexes which were prepared in saline (Quality Biological, Gaithersburg, MD, cat. 114-055-101), at 800-fold the tested concentration and stored at -70 degrees C prior to their use. All drugs and investigational agents were tested over a range starting from a high concentration at or near the clinical Cmax and decreasing in half-log increments. If the clinical Cmax for an agent had not been determined, the highest concentration tested was 10 microM.
Cell Culture. All cells were maintained in an incubator at 37 degrees C and 5% CO2 with 95% humidity. The PDC lines were cultured according to standard operating procedures established by the NCI PDMR. Briefly, all PDCs were thawed and cultured in Matrigel-coated flasks prepared with a working solution of 1X Ham's F-12 nutrient mix, without supplementation (Invitrogen, Waltham, MA, cat. 11765054), 100 U/mL penicillin-streptomycin (Invitrogen, cat. 15140122), and 2.5% Matrigel (Corning Inc., Corning, NY, cat. 354248) for the first three passages. The 947758-054-R-J2-PDC line was cultured in 6B/Colon 1A media, which includes advanced DMEM/F-12 (Thermo Fisher Scientific, cat. 12634028), 10 mM HEPES (Thermo Fisher Scientific, cat. 15630080), 1X GlutaMAX supplement (Thermo Fisher Scientific, cat. 35050061), 0.1 mg/mL primocin (InvivoGen, cat. ant-pm-2), 10% defined fetal bovine serum, heat inactivated (HyClone Laboratories Inc., cat. SH30070.03HI), 1.25 mM N-Acetyl-L-cysteine (Sigma-Aldrich, cat. A9165), 10 mM nicotinamide (Sigma-Aldrich, cat. N0636), 1X B-27 supplement (Thermo Fisher Scientific, cat. 17504044), 1X N-2 supplement (Thermo Fisher Scientific, cat. 17502048), and 10 microM Y-27632 dihydrochloride (Tocris Bioscience, cat. 1254). The 876862-298-R-J1-PDC was cultured in 6E media, which includes all 6B/Colon 1A media components plus 50% L-WRN conditioned media (ATCC, cat. CRL-3276), 50 ng/mL recombinant human EGF recombinant protein (hEGF; Thermo Fisher Scientific, cat. PHG0311), 10 ng/mL recombinant human fibroblast growth factor 10 (hGFG-10; PeproTech, cat. 100-26), 1 ng/mL recombinant human fibroblast growth factor 2 (hFGF-2; PeproTech, cat. 100-18B), and 1 µM prostaglandin E2 (PGE2; Tocris, cat. 2296). The 227483-062-R1-J1-PDC line was cultured in Panc media, containing all 6E components except hFGF-2, with the addition of 500 nM SB-431542 (Selleckchem, cat. S1067) and 10 nM gastrin (Tocris, cat. 3006). […]

[1] = curve of first compound, second compound 0.0316 µM
[2] = curve of first compound, second compound 0.1 µM
[3] = curve of first compound, second compound 0.316 µM
[4] = curve of first compound, second compound 1 µM
[5] = curve of first compound, second compound 3.16 µM
[6] = curve of first compound, second compound 10 µM
[7] = second compound 0.0316 µM, first compound 0.0316 µM
[8] = second compound 0.0316 µM, first compound 0.1 µM
[9] = second compound 0.0316 µM, first compound 0.316 µM
[10] = second compound 0.0316 µM, first compound 1 µM
[11] = second compound 0.0316 µM, first compound 3.16 µM
[12] = second compound 0.0316 µM, first compound 10 µM
[13] = second compound 0.1 µM, first compound 0.0316 µM
[14] = second compound 0.1 µM, first compound 0.1 µM
[15] = second compound 0.1 µM, first compound 0.316 µM
[16] = second compound 0.1 µM, first compound 1 µM
[17] = second compound 0.1 µM, first compound 3.16 µM
[18] = second compound 0.1 µM, first compound 10 µM
[19] = second compound 0.316 µM, first compound 0.0316 µM
[20] = second compound 0.316 µM, first compound 0.1 µM
[21] = second compound 0.316 µM, first compound 0.316 µM
[22] = second compound 0.316 µM, first compound 1 µM
[23] = second compound 0.316 µM, first compound 3.16 µM
[24] = second compound 0.316 µM, first compound 10 µM
[25] = second compound 1 µM, first compound 0.0316 µM
[26] = second compound 1 µM, first compound 0.1 µM
[27] = second compound 1 µM, first compound 0.316 µM
[28] = second compound 1 µM, first compound 1 µM
[29] = second compound 1 µM, first compound 3.16 µM
[30] = second compound 1 µM, first compound 10 µM
[31] = second compound 3.16 µM, first compound 0.0316 µM
[32] = second compound 3.16 µM, first compound 0.1 µM
[33] = second compound 3.16 µM, first compound 0.316 µM
[34] = second compound 3.16 µM, first compound 1 µM
[35] = second compound 3.16 µM, first compound 3.16 µM
[36] = second compound 3.16 µM, first compound 10 µM
[37] = second compound 10 µM, first compound 0.0316 µM
[38] = second compound 10 µM, first compound 0.1 µM
[39] = second compound 10 µM, first compound 0.316 µM
[40] = second compound 10 µM, first compound 1 µM
[41] = second compound 10 µM, first compound 3.16 µM
[42] = second compound 10 µM, first compound 10 µM
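Note: viability read after seven days of drug exposure.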
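Throughout, for viability, T/C: 100% = DMSO vehicle control wells.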

CC1COCCN1c1cc(C2(S(C)(=N)=O)CC2)nc(-c2ccnc3[nH]ccc23)n1 (stereo not drawn) + CNC(=O)c1ccc(Nc2nc(OC3CCCC3)c3c(-c4ccc5nc(C)oc5c4)c[nH]c3n2)c(OC)c1
IC50 [1]: 1390 nM | IC50 [2]: < 31.6 nM | IC50 [3]: < 31.6 nM | IC50 [4]: < 31.6 nM | IC50 [5]: < 31.6 nM | IC50 [6]: < 31.6 nM | viability, T/C [7]: 90.4% | viability, T/C [8]: 89.2% | viability, T/C [9]: 71% | viability, T/C [10]: 60.7% | viability, T/C [11]: 31.1% | viability, T/C [12]: 15.5% | viability, T/C [13]: 30.8% | viability, T/C [14]: 29.2% | viability, T/C [15]: 26.2% | viability, T/C [16]: 27.4% | viability, T/C [17]: 24.1% | viability, T/C [18]: 17.1% | viability, T/C [19]: 18.6% | viability, T/C [20]: 19.4% | viability, T/C [21]: 17.2% | viability, T/C [22]: 17.4% | viability, T/C [23]: 12.9% | viability, T/C [24]: 10.9% | viability, T/C [25]: 14.7% | viability, T/C [26]: 15.8% | viability, T/C [27]: 16% | viability, T/C [28]: 12.6% | viability, T/C [29]: 13.9% | viability, T/C [30]: 7.97% | viability, T/C [31]: 16.2% | viability, T/C [32]: 15.1% | viability, T/C [33]: 16.9% | viability, T/C [34]: 15.6% | viability, T/C [35]: 13.1% | viability, T/C [36]: 7.09% | viability, T/C [37]: 16.6% | viability, T/C [38]: 15.1% | viability, T/C [39]: 16.7% | viability, T/C [40]: 15.2% | viability, T/C [41]: 14.5% | viability, T/C [42]: 8.22%

COc1c(OCCCN2CCOCC2)ccc2c3n(c(=NC(=O)c4cnc(N)nc4)nc12)CCN3 + CN1CCN(c2cc(C(=O)Nc3cc4cc(-c5cnn(C)c5)ccc4cn3)ccn2)CC1
IC50 [1]: 17.3 nM | IC50 [2]: 5.43 nM | IC50 [3]: < 3.16 nM | IC50 [4]: < 3.16 nM | IC50 [5]: < 3.16 nM | IC50 [6]: < 3.16 nM | viability, T/C (second compound 0.0316 µM, first compound 0.00316 µM): 76.1% | viability, T/C (second compound 0.0316 µM, first compound 0.01 µM): 59.6% | viability, T/C [7]: 39.2% | viability, T/C [8]: 21.2% | viability, T/C [9]: 7.23% | viability, T/C [10]: 1.32% | viability, T/C (second compound 0.1 µM, first compound 0.00316 µM): 55.8% | viability, T/C (second compound 0.1 µM, first compound 0.01 µM): 43.5% | viability, T/C [13]: 29.5% | viability, T/C [14]: 17.6% | viability, T/C [15]: 6.5% | viability, T/C [16]: 1.24% | viability, T/C (second compound 0.316 µM, first compound 0.00316 µM): 23.9% | viability, T/C (second compound 0.316 µM, first compound 0.01 µM): 19.4% | viability, T/C [19]: 15.1% | viability, T/C [20]: 8.98% | viability, T/C [21]: 2.42% | viability, T/C [22]: 0.55% | viability, T/C (second compound 1 µM, first compound 0.00316 µM): 2.31% | viability, T/C (second compound 1 µM, first compound 0.01 µM): 2.19% | viability, T/C [25]: 1.42% | viability, T/C [26]: 0.41% | viability, T/C [27]: 0.11% | viability, T/C [28]: 0.13% | viability, T/C (second compound 3.16 µM, first compound 0.00316 µM): 0.09% | viability, T/C (second compound 3.16 µM, first compound 0.01 µM): 0.16% | viability, T/C [31]: 0.14% | viability, T/C [32]: 0.07% | viability, T/C [33]: 0.08% | viability, T/C [34]: 0.13% | viability, T/C (second compound 10 µM, first compound 0.00316 µM): 0.05% | viability, T/C (second compound 10 µM, first compound 0.01 µM): 0.24% | viability, T/C [37]: 0.16% | viability, T/C [38]: 0.09% | viability, T/C [39]: 0.29% | viability, T/C [40]: 0.16%

COc1ccc([C@@H](O)c2cc(-c3ncnc4cc(N5CCOCC5)ccc34)c(F)cc2Cl)nn1
viability, T/C (compound 0.0316 µM): 78% and 79.6% | viability, T/C (compound 0.1 µM): 81% and 88.1% | viability, T/C (compound 0.316 µM): 68.9% and 55.6% | viability, T/C (compound 1 µM): 59.9% and 71% | viability, T/C (compound 3.16 µM): 52.4% and 50.7% | viability, T/C (compound 10 µM): 37.4% and 36.7% | IC50 (curve of compound): 3300 nM and 3510 nM

C=C(F)C(=O)N1CCN(c2nc(OCC3CCCN3C)nc3c2CCN(c2cccc4cccc(Cl)c24)C3)CC1CC#N (stereo not drawn) + CN1CCN(c2cc(C(=O)Nc3cc4cc(-c5cnn(C)c5)ccc4cn3)ccn2)CC1
IC50 [1]: 3120 nM | IC50 [2]: 1560 nM | IC50 [3]: < 31.6 nM | IC50 [4]: < 31.6 nM | IC50 [5]: < 31.6 nM | IC50 [6]: < 31.6 nM | viability, T/C [7]: 75.2% | viability, T/C [8]: 88.7% | viability, T/C [9]: 81.8% | viability, T/C [10]: 78.8% | viability, T/C [11]: 49.6% | viability, T/C [12]: 2.48% | viability, T/C [13]: 60.9% | viability, T/C [14]: 64% | viability, T/C [15]: 57.3% | viability, T/C [16]: 53.3% | viability, T/C [17]: 43.3% | viability, T/C [18]: 2.19% | viability, T/C [19]: 25.4% | viability, T/C [20]: 26.9% | viability, T/C [21]: 22.3% | viability, T/C [22]: 24.5% | viability, T/C [23]: 19.6% | viability, T/C [24]: 0.24% | viability, T/C [25]: 2.43% | viability, T/C [26]: 1.75% | viability, T/C [27]: 2.24% | viability, T/C [28]: 1.87% | viability, T/C [29]: 0.88% | viability, T/C [30]: 0.23% | viability, T/C [31]: 0.21% | viability, T/C [32]: 0.19% | viability, T/C [33]: 0.24% | viability, T/C [34]: 0.17% | viability, T/C [35]: 0.33% | viability, T/C [36]: 0.12% | viability, T/C [37]: 0.34% | viability, T/C [38]: 0.23% | viability, T/C [39]: 0.23% | viability, T/C [40]: 0.35% | viability, T/C [41]: 0.2% | viability, T/C [42]: 0.2%
